Values after ≈ are worked out from the molar mass of the structure shown. Values joined by “and” are separate entries in the source; they are usually repeats but may differ in a detail not shown here. Identical values can stand only once. Like-named read-outs stand apart in the source and are kept apart here.
What was measured:
Format in all cases: cell-based
E. coli CVCCO157 = assay: MIC, microtiter broth dilution; details: 37 °C, 16–18 h, three experiments
From the text: (§1) All experiments were repeated three times.

A. veronii ATCC35624 = tested on: A. veronii ATCC35624
A. veronii ACCC61732 [1] = assay: Time-killing curves; details: 2× MIC; 1 × 10^5 CFU/mL, colony counting, 0–24 h
Protocol: Time-killing curves were performed as previously described. […] The sample of 100 μL was taken from each flask at 0, 0.5, 1, 2, 4, 6, 8, 10, 20, and 24 h, respectively, and serially diluted for colony counting. PBS and CIP were used as the negative and positive control, respectively.

E. coli CVCC1515 = assay: microbe, parasite or virus in culture
From the text: as §1

S. pullorum CVCC1789 = assay: microbe, parasite or virus in culture
From the text: as §1

A. veronii X-1-06909 = assay: microbe, parasite or virus in culture
From the text: as §1

Escherichia coli CVCC195 = assay: microbe, parasite or virus in culture
From the text: as §1

S. enteritidis CVCC3377 = assay: microbe, parasite or virus in culture
From the text: as §1

[2] = tested on: Staphylococcus aureus ATCC43300; assay: microbe, parasite or virus in culture
From the text: as §1

[3] = tested on: Candida albicans CMCC98001; assay: microbe, parasite or virus in culture
From the text: as §1

S. pullorum CVCC1809 = assay: microbe, parasite or virus in culture
From the text: as §1

S. pullorum CVCC533 = assay: microbe, parasite or virus in culture
From the text: as §1

E. coli CVCC25922 = assay: microbe, parasite or virus in culture
From the text: as §1

A. veronii ACCC61732 [4] = assay: Post-antibiotic effect (PAE); details: for PAE: 2 h exposure, 1000-fold dilution, 37 °C, triplicate; for PAEs, range over 1×–4× MIC: 1× to 4× MIC
Protocol: The samples were taken from flasks for counting each hour until bacterial cultures became turbid. The untreated bacteria severed as controls. The PAE was calculated using the following equation: PAE = T − C, where T is the time (h) required for the CFU in the test culture to increase by 10-fold from the count immediately after the drug removal and C is the corresponding time (h) for the control. The experiment was performed in triplicate.

[5] = tested on: A. veronii ACCC61732 in biofilm; details: 2 h
Protocol: The mid-log phase A. veronii ACCC61732 cells (1 × 10^8 CFU/mL) were inoculated into in the 96-well plates and cultured for 24 h at 37 °C. The plates were washed twice with PBS. […] PBS was used as the negative control. The plates were treated with ultrasound for 5 min and the viable bacteria were counted on the TSA plates.

A. veronii ACCC61732 [6] = assay: microbe, parasite or virus in culture
From the text: The checkerboard microtiter assay was used to determine the combinations of peptides with different antibiotics (including quinolone, rifamycin, peptide antibiotics, aminoglycoside, tetracycline, and chloramphenicol). […] The fractional inhibitory concentration (FIC) was used to calculate the combination effects using the following formula: FIC index (FICI) = MIC(peptide in combination)/MIC(peptide alone) + MIC(antibiotic in combination)/MIC(antibiotic alone). FICI ≤ 0.5 means synergistic, 0.5 < FICI ≤ 1 means additive action, 1 < FICI ≤ 4 means indifference, and FICI > 4 means antagonism.

A. veronii ACCC61732 [7] = assay: Resistance development, 30 serial passages; details: A. veronii ACCC61732, 30 passages (30 days)
Protocol: The development of bacterial resistance of peptides was performed by the MIC assays. […] GEN, CIP, and PMB were used as controls. […] The MIC values were measured as described above. The serial passaging was repeated for 30 days.

[8] = A. veronii ATCC35624, broth dilution, 37 °C, 16–18 h, three experiments
[9] = E. coli CVCC1515, broth dilution, 37 °C, 16–18 h, three experiments
[10] = S. pullorum CVCC1789, broth dilution, 37 °C, 16–18 h, three experiments
[11] = A. veronii X-1-06909, broth dilution, 37 °C, 16–18 h, three experiments
[12] = Escherichia coli CVCC195, broth dilution, 37 °C, 16–18 h, three experiments
[13] = S. enteritidis CVCC3377, broth dilution, 37 °C, 16–18 h, three experiments
[14] = Staphylococcus aureus ATCC43300, broth dilution, 37 °C, 16–18 h, three experiments
[15] = S. pullorum CVCC1809, broth dilution, 37 °C, 16–18 h, three experiments
[16] = S. pullorum CVCC533, broth dilution, 37 °C, 16–18 h, three experiments
[17] = E. coli CVCC25922, broth dilution, 37 °C, 16–18 h, three experiments

CC(C)[C@@H]1NC(=O)CNC(=O)[C@H](CC(N)=O)NC(=O)[C@H](CCCNC(=N)N)NC(=O)[C@H](Cc2ccc(O)cc2)NC(=O)[C@H](C(C)C)NC(=O)[C@@H](NC(=O)[C@@H](NC(=O)[C@H](CC(N)=O)NC(=O)[C@H](Cc2c[nH]c3ccccc23)NC(=O)[C@H](C)NC(=O)[C@H](Cc2ccccc2)NC(=O)[C@H](CCCN)N=C(N(C)C)N(C)C)C(C)C)CSSC[C@@H](C(=O)N[C@@H](Cc2c[nH]cn2)C(=O)N[C@@H](CCCNC(=N)N)C(=O)N[C@@H](CCCNC(=N)N)C(=O)N[C@@H](C)C(=O)N[C@@H](CC(N)=O)C(N)=O)NC(=O)[C@H](C(C)C)NC(=O)[C@H](CCCNC(=N)N)NC1=O (stereo in doubt) [Guo-N6NH2]
MIC (E. coli CVCCO157): 4 µg/mL (≈ 1.52 µM)
MIC (A. veronii ATCC35624; [8]): 32 µg/mL
MIC (A. veronii ATCC35624; ATCC35624): 12.16 µM
time to completely kill A. veronii ACCC61732 (A. veronii ACCC61732 [1]): 6 h
MIC (E. coli CVCC1515; CVCC1515, read-out: MIC): 0.76 µM
MIC (E. coli CVCC1515; [9]): 2 µg/mL
MIC (S. pullorum CVCC1789; CVCC1789, read-out: MIC): 3.04 µM
MIC (S. pullorum CVCC1789; [10]): 8 µg/mL
MIC (A. veronii X-1-06909; [11]): 16 µg/mL
MIC (A. veronii X-1-06909; read-out: MIC): 6.08 µM
MIC (Escherichia coli CVCC195; [12]): 4 µg/mL
MIC (S. enteritidis CVCC3377; CVCC3377, read-out: MIC): 0.76 µM
MIC (S. enteritidis CVCC3377; [13]): 2 µg/mL
MIC ([2]; ATCC43300, read-out: MIC): 6.08 µM
MIC [2, 14]: 16 µg/mL
MIC ([3]; CMCC98001, read-out: MIC): >48.6 µM
MIC (S. pullorum CVCC1809; [15]): 4 µg/mL
MIC (S. pullorum CVCC533; CVCC533, read-out: MIC): 3.04 µM
MIC (S. pullorum CVCC533; [16]): 8 µg/mL
MIC (E. coli CVCC25922; [17]): 4 µg/mL
PAE (A. veronii ACCC61732 [4]; 1× MIC): 0.62 ± 0.01 h
PAEs, range over 1×–4× MIC (A. veronii ACCC61732 [4]): 0.62 to 2.07 h
PAE (A. veronii ACCC61732 [4]; 2× MIC): 1.32 ± 0.08 h
PAE (A. veronii ACCC61732 [4]; 4× MIC): 2.07 ± 0.08 h
bacteria in biofilm killed [5]; 8: 46.26%
bacteria in biofilm killed [5]; 16: 54.31%
MICa, MIC of the peptide used alone (A. veronii ACCC61732 [6]): 8 µg/mL
interaction with polymyxin B (PMB) (A. veronii ACCC61732 [6]; checkerboard, by FICI): synergic effect
increase of MIC after 30 serial passages (A. veronii ACCC61732 [7]): three-fold

CC(C)[C@@H]1NC(=O)CNC(=O)[C@H](CC(N)=O)NC(=O)[C@H](CCCNC(=N)N)NC(=O)[C@H](Cc2ccc(O)cc2)NC(=O)[C@H](C(C)C)NC(=O)[C@@H](NC(=O)[C@@H](NC(=O)[C@H](CC(N)=O)NC(=O)[C@H](Cc2c[nH]c3ccccc23)NC(=O)[C@H](C)NC(=O)[C@H](Cc2ccccc2)NC(=O)CN)C(C)C)CSSC[C@@H](C(=O)N[C@@H](Cc2cnc[nH]2)C(=O)N[C@@H](CCCNC(=N)N)C(=O)N[C@@H](CCCNC(=N)N)C(=O)N[C@@H](C)C(=O)N[C@@H](CC(N)=O)C(N)=O)NC(=O)[C@H](C(C)C)NC(=O)[C@H](CCCNC(=N)N)NC1=O [N6NH2]
MIC (E. coli CVCCO157): 4 µg/mL (≈ 1.62 µM)
MIC (A. veronii ATCC35624; [8]): 8 µg/mL
MIC (A. veronii ATCC35624; ATCC35624): 3.23 µM
time to completely kill A. veronii ACCC61732 (A. veronii ACCC61732 [1]): 8 h
MIC (E. coli CVCC1515; CVCC1515, read-out: MIC): 0.81 µM
MIC (E. coli CVCC1515; [9]): 2 µg/mL
MIC (S. pullorum CVCC1789; CVCC1789, read-out: MIC): 3.23 µM
MIC (S. pullorum CVCC1789; [10]): 8 µg/mL
MIC (A. veronii X-1-06909; [11]): 32 µg/mL
MIC (A. veronii X-1-06909; read-out: MIC): 12.9 µM
MIC (Escherichia coli CVCC195; [12]): 4 µg/mL
MIC (S. enteritidis CVCC3377; CVCC3377, read-out: MIC): 0.81 µM
MIC (S. enteritidis CVCC3377; [13]): 2 µg/mL
MIC ([2]; ATCC43300, read-out: MIC): 6.46 µM
MIC [2, 14]: 16 µg/mL
MIC ([3]; CMCC98001, read-out: MIC): >52 µM
MIC (S. pullorum CVCC1809; [15]): 4 µg/mL
MIC (S. pullorum CVCC533; [16]): 4 µg/mL
MIC (E. coli CVCC25922; [17]): 4 µg/mL
PAE (A. veronii ACCC61732 [4]; 1× MIC): 0.69 ± 0.01 h
PAEs, range over 1×–4× MIC (A. veronii ACCC61732 [4]): 0.69 to 1.17 h
PAE (A. veronii ACCC61732 [4]; 2× MIC): 0.7 ± 0.01 h
PAE (A. veronii ACCC61732 [4]; 4× MIC): 1.17 ± 0.22 h
bacteria in biofilm killed [5]; 8: 65.49%
bacteria in biofilm killed [5]; 16: 75.36%
interaction with polymyxin B (PMB) (A. veronii ACCC61732 [6]; checkerboard, by FICI): synergic effect
interaction with rifampicin, streptomycin sulfate, doxycycline hyclate, and kanamycin sulfate (A. veronii ACCC61732 [6]; checkerboard, by FICI): additive effects
increase of MIC after 30 serial passages (A. veronii ACCC61732 [7]): one-fold

O=C(O)c1cn(C2CC2)c2cc(N3CCNCC3)c(F)cc2c1=O [CIP, ciprofloxacin, reference compound]
MIC (E. coli CVCCO157; Escherichia coli, read-out: MIC): < 0.0625 µg/mL and < 0.19 µM
time to completely kill A. veronii ACCC61732 (A. veronii ACCC61732 [1]): started to regrow after 2 h
MIC (E. coli CVCC1515; Escherichia coli, CVCC1515): < 0.0625 µg/mL
MIC (E. coli CVCC1515; Escherichia coli, E. coli CVCC1515, broth dilution, 37 °C, 16–18 h, three experiments, read-out: MIC): < 0.19 µM
MIC (S. pullorum CVCC1789; Salmonella enterica, PULLORUM): < 0.0625 µg/mL
MIC (S. pullorum CVCC1789; Salmonella enterica, S. pullorum CVCC1789, broth dilution, 37 °C, 16–18 h, three experiments, read-out: MIC): < 0.19 µM
MIC (A. veronii X-1-06909; Aeromonas veronii, X106909, A. veronii X-1-06909, broth dilution, 37 °C, 16–18 h, three experiments, read-out: MIC): 0.25 µg/mL and 0.75 µM
MIC (Escherichia coli CVCC195; Escherichia coli CVCC195, broth dilution, 37 °C, 16–18 h, three experiments, read-out: MIC): < 0.19 µM
MIC (Escherichia coli CVCC195; Escherichia coli, CVCC195): < 0.0625 µg/mL
MIC (S. enteritidis CVCC3377; Salmonella enterica, ENTERITIDIS): < 0.0625 µg/mL
MIC (S. enteritidis CVCC3377; Salmonella enterica, S. enteritidis CVCC3377, broth dilution, 37 °C, 16–18 h, three experiments, read-out: MIC): < 0.19 µM
MIC ([2]; Staphylococcus aureus ATCC43300, broth dilution, 37 °C, 16–18 h, three experiments, read-out: MIC): 0.25 µg/mL and 0.75 µM
MIC ([3]; Candida albicans CMCC98001, broth dilution, 37 °C, 16–18 h, three experiments, read-out: MIC): > 386 µM
MIC ([3]; Candida albicans, CMCC98001): > 128 µg/mL
MIC (S. pullorum CVCC1809; Salmonella enterica, PULLORUM): < 0.0625 µg/mL
MIC (S. pullorum CVCC1809; Salmonella enterica, S. pullorum CVCC1809, broth dilution, 37 °C, 16–18 h, three experiments, read-out: MIC): < 0.19 µM
MIC (S. pullorum CVCC533; Salmonella enterica, PULLORUM): < 0.0625 µg/mL
MIC (S. pullorum CVCC533; Salmonella enterica, S. pullorum CVCC533, broth dilution, 37 °C, 16–18 h, three experiments, read-out: MIC): < 0.19 µM
MIC (E. coli CVCC25922; Escherichia coli, CVCC25922): < 0.0625 µg/mL
MIC (E. coli CVCC25922; Escherichia coli, E. coli CVCC25922, broth dilution, 37 °C, 16–18 h, three experiments, read-out: MIC): < 0.19 µM
PAE (A. veronii ACCC61732 [4]; 1× MIC): 0.6 ± 0.01 h
PAE (A. veronii ACCC61732 [4]; 2× MIC): 0.63 ± 0.1 h
PAE (A. veronii ACCC61732 [4]; 4× MIC): 0.67 h and 0.67 ± 0.02 h
bacteria in biofilm killed ([5]; 8× MIC, 37 °C, colony counting): 47.46%
bacteria in biofilm killed ([5]; 16× MIC, 37 °C, colony counting): 52.32%
MIC (A. veronii ACCC61732 [6]; Aeromonas veronii, ACCC61732, read-out: MICa, MIC of the antibiotic used alone): 0.125 µg/mL
increase of MIC after 30 serial passages (A. veronii ACCC61732 [7]): 15 fold

— PMC7767178 (International Journal of Molecular Sciences, 2020)
